This note sets out measurements from patent publication US10428044B2, “3-amino-1,5,6,7-tetrahydro-4H-indol-4-ones” (Bayer Pharma Aktiengesellschaft, priority 2014, dated 2019).

The assay concerns the target (recombinant) catalytic domain of human Bub1 (amino acids 704-1085) (Homo sapiens (Human), UniProt O43683). In words: Bub1 kinase assay (TR-FRET). In kind it is biochemical. To be noted: ATP 10 μM final, peptide substrate 1 μM final, 60 min at 22° C., read-out: Biological Assay: Bub1 kinase assay median IC50. In a few lines: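 Compounds were serially diluted 1:3.4 from 2 mM DMSO stocks and incubated with the enzyme reaction for 60 min at 22° C. The reaction was stopped with EDTA, and biotinylated peptide phosphorylation was read by TR-FRET using Eu anti-mouse IgG, anti-phosphoserine antibody and streptavidin-XL665. IC50 was fitted by 4-parameter logistic to inhibition normalized to no-inhibitor and no-enzyme controls.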
(In TR-FRET formats the signal depends on donor and acceptor labels being close together.)

Structures are written as SMILES.

Sequence of (recombinant) catalytic domain of human Bub1 (amino acids 704-1085) (O43683 704-1085): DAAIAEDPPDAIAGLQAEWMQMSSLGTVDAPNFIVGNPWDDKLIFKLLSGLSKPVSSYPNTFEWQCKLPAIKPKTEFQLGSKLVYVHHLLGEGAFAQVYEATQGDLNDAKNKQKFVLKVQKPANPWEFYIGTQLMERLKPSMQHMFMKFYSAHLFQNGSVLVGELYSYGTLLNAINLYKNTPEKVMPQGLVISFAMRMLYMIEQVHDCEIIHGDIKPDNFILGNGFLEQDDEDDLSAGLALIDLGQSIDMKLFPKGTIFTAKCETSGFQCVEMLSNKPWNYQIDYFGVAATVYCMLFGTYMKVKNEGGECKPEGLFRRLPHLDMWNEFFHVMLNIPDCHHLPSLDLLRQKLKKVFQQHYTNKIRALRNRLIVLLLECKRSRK

For the molecule `COc1ccc(COCC(=O)Nc2cc(-c3[nH]c4c(c3Nc3ccccc3)C(=O)CCC4)ccn2)cc1` [Example 342, 2-[(4-methoxybenzyl)oxy]-N-{4-[4-oxo-3-(phenylamino)-4,5,6,7-tetrahydro-1H-indol-2-yl]pyridin-2-yl}acetamide], the IC50 came out at 7.12 nM.

Turning to `O=C(COC[C@@H]1CCCCO1)Nc1cc(-c2[nH]c3c(c2Nc2ccccc2)C(=O)CCC3)ccn1` [Example 343, N-{4-[4-oxo-3-(phenylamino)-4,5,6,7-tetrahydro-1H-indol-2-yl]pyridin-2-yl}-2-[(2S)-tetrahydro-2H-pyran-2-ylmethoxy]acetamide], the IC50 is 8.45 nM.

Take `O=C(COc1ccsc1)Nc1cc(-c2[nH]c3c(c2Nc2ccccc2)C(=O)CCC3)ccn1` [Example 344, N-{4-[4-oxo-3-(phenylamino)-4,5,6,7-tetrahydro-1H-indol-2-yl]pyridin-2-yl}-2-(thiophen-3-yloxy)acetamide]: the IC50 was found to be 19.8 nM.

Consider `O=C(COc1ccsc1Cl)Nc1cc(-c2[nH]c3c(c2Nc2ccccc2)C(=O)CCC3)ccn1` [Example 345, 2-[(2-chlorothiophen-3-yl)oxy]-N-{4-[4-oxo-3-(phenylamino)-4,5,6,7-tetrahydro-1H-indol-2-yl]pyridin-2-yl}acetamide], for which the IC50 was 72.5 nM.

In the case of `Cc1cc(OCC(=O)Nc2cc(-c3[nH]c4c(c3Nc3ccccc3)C(=O)CCC4)ccn2)no1` [Example 346, 2-[(5-methyl-1,2-oxazol-3-yl)oxy]-N-{4-[4-oxo-3-(phenylamino)-4,5,6,7-tetrahydro-1H-indol-2-yl]pyridin-2-yl}acetamide], the IC50 turned out to be 9.88 nM.

As for `O=C(COc1ccccn1)Nc1cc(-c2[nH]c3c(c2Nc2ccccc2)C(=O)CCC3)ccn1` [Example 347, N-{4-[4-oxo-3-(phenylamino)-4,5,6,7-tetrahydro-1H-indol-2-yl]pyridin-2-yl}-2-(pyridin-2-yloxy)acetamide], the half-maximal inhibitory concentration (IC50) came out at 101 nM.

`O=C(COc1ccon1)Nc1cc(-c2[nH]c3c(c2Nc2ccccc2)C(=O)CCC3)ccn1` [Example 348, 2-(1,2-oxazol-3-yloxy)-N-{4-[4-oxo-3-(phenylamino)-4,5,6,7-tetrahydro-1H-indol-2-yl]pyridin-2-yl}acetamide]: the IC50 was 10.2 nM.

Turning to `Cc1noc(COCC(=O)Nc2cc(-c3[nH]c4c(c3Nc3ccccc3)C(=O)CCC4)ccn2)n1` [Example 349, 2-[(3-methyl-1,2,4-oxadiazol-5-yl)methoxy]-N-{4-[4-oxo-3-(phenylamino)-4,5,6,7-tetrahydro-1H-indol-2-yl]pyridin-2-yl}acetamide], the IC50 came to 8.19 nM.

With `Cc1cc(COCC(=O)Nc2cc(-c3[nH]c4c(c3Nc3ccccc3)C(=O)CCC4)ccn2)on1` [Example 350, 2-[(3-methyl-1,2-oxazol-5-yl)methoxy]-N-{4-[4-oxo-3-(phenylamino)-4,5,6,7-tetrahydro-1H-indol-2-yl]pyridin-2-yl}acetamide], the IC50 was found to be 6.53 nM.

Turning to `Cn1nccc1COCC(=O)Nc1cc(-c2[nH]c3c(c2Nc2ccccc2)C(=O)CCC3)ccn1` [Example 351, 2-[(1-methyl-1H-pyrazol-5-yl)methoxy]-N-{4-[4-oxo-3-(phenylamino)-4,5,6,7-tetrahydro-1H-indol-2-yl]pyridin-2-yl}acetamide], the IC50 stood at 6.22 nM.

As to `O=C(COCc1ccco1)Nc1cc(-c2[nH]c3c(c2Nc2ccccc2)C(=O)CCC3)ccn1` [Example 352, 2-(furan-2-ylmethoxy)-N-{4-[4-oxo-3-(phenylamino)-4,5,6,7-tetrahydro-1H-indol-2-yl]pyridin-2-yl}acetamide], the IC50 was found to be 6.68 nM.

In the case of `Cc1nnc(COCC(=O)Nc2cc(-c3[nH]c4c(c3Nc3ccccc3)C(=O)CCC4)ccn2)o1` [Example 353, 2-[(5-methyl-1,3,4-oxadiazol-2-yl)methoxy]-N-{4-[4-oxo-3-(phenylamino)-4,5,6,7-tetrahydro-1H-indol-2-yl]pyridin-2-yl}acetamide], the IC50 amounted to 14.4 nM.

`Cc1cc(COCC(=O)Nc2cc(-c3[nH]c4c(c3Nc3ccccc3)C(=O)CCC4)ccn2)no1` [Example 354, 2-[(5-methyl-1,2-oxazol-3-yl)methoxy]-N-{4-[4-oxo-3-(phenylamino)-4,5,6,7-tetrahydro-1H-indol-2-yl]pyridin-2-yl}acetamide]: the IC50 was 6.57 nM.

Consider `Cc1cnc(COCC(=O)Nc2cc(-c3[nH]c4c(c3Nc3ccccc3)C(=O)CCC4)ccn2)o1` [Example 355, 2-[(5-methyl-1,3-oxazol-2-yl)methoxy]-N-{4-[4-oxo-3-(phenylamino)-4,5,6,7-tetrahydro-1H-indol-2-yl]pyridin-2-yl}acetamide], for which the IC50 was 6.45 nM.

On to `Cc1nnc(COCC(=O)Nc2cc(-c3[nH]c4c(c3Nc3ccccc3)C(=O)CCC4)ccn2)s1` [Example 356, 2-[(5-methyl-1,3,4-thiadiazol-2-yl)methoxy]-N-{4-[4-oxo-3-(phenylamino)-4,5,6,7-tetrahydro-1H-indol-2-yl]pyridin-2-yl}acetamide], for which the IC50 stood at 7.91 nM.

As for `CC(=O)Nc1cc(-c2[nH]c3c(c2Nc2ccccc2)C(=O)CC(C)(C)C3)ncn1` [Example 357, N-{6-[6,6-dimethyl-4-oxo-3-(phenylamino)-4,5,6,7-tetrahydro-1H-indol-2-yl]pyrimidin-4-yl}acetamide], the IC50 was 3080 nM.

For `CNc1cc(-c2[nH]c3c(c2Nc2ccccc2)C(=O)CCC3)ccn1` [Example 358, 2-[2-(methylamino)pyridin-4-yl]-3-(phenylamino)-1,5,6,7-tetrahydro-4H-indol-4-one], the IC50 is 1130 nM.

As to `CC1(C)CC(=O)c2c([nH]c(-c3ccnc(NC4CCC4)c3)c2Nc2ccccc2)C1` [Example 359, 2-[2-(cyclobutylamino)pyridin-4-yl]-6,6-dimethyl-3-(phenylamino)-1,5,6,7-tetrahydro-4H-indol-4-one], the half-inhibitory concentration (IC50) was 208 nM.

In the case of `CC1(C)CC(=O)c2c([nH]c(-c3ccnc(N4CCC4)c3)c2Nc2ccccc2)C1` [Example 360, 2-[2-(azetidin-1-yl)pyridin-4-yl]-6,6-dimethyl-3-(phenylamino)-1,5,6,7-tetrahydro-4H-indol-4-one], the IC50 is 12700 nM.

Turning to `CC1(C)CC(=O)c2c([nH]c(-c3ccnc(NCC(F)(F)F)c3)c2Nc2ccccc2)C1` [Example 361, 6,6-dimethyl-3-(phenylamino)-2-{2-[(2,2,2-trifluoroethyl)amino]pyridin-4-yl}-1,5,6,7-tetrahydro-4H-indol-4-one], the IC50 was 600 nM.

Turning to `CC1(C)CC(=O)c2c([nH]c(-c3ccnc(NCCC(F)(F)F)c3)c2Nc2ccccc2)C1` [Example 362, 6,6-dimethyl-3-(phenylamino)-2-{2-[(3,3,3-trifluoropropyl)amino]pyridin-4-yl}-1,5,6,7-tetrahydro-4H-indol-4-one], the IC50 worked out at 392 nM.

As to `CC(Nc1cc(-c2[nH]c3c(c2Nc2ccccc2)C(=O)CC(C)(C)C3)ccn1)C(F)F` (centres unmarked) [Example 363, 2-(2-{[1,1-difluoropropan-2-yl]amino}pyridin-4-yl)-6,6-dimethyl-3-(phenylamino)-1,5,6,7-tetrahydro-4H-indol-4-one], the IC50 was 207 nM.

Take `CC(C)Nc1cc(-c2[nH]c3c(c2Nc2ccccc2)C(=O)CCC3)ccn1` [Example 364, 3-(phenylamino)-2-[2-(propan-2-ylamino)pyridin-4-yl]-1,5,6,7-tetrahydro-4H-indol-4-one]: the IC50 came to 502 nM.

A word on the IC50: it is the point on the concentration scale where inhibition reaches its midpoint.
